Results taken from patent US9987364B2, “Water-swellable polymers” (Ferring B.V., priority 2002, dated 2018).

Experiments:
[1] = cited from earlier work
[2] = In vitro drug release from pessaries, USP Method XXIII Apparatus 2; type: physicochemical; conditions: 37° C., 50 rpm
Procedure: The drug loaded polymer were analysed for in vitro drug release following USP Method XXIII, Apparatus 2 at 37° C., with 50 rpm paddle speed. Drug release was analysed by ultraviolet spectroscopy or high pressure liquid chromatography (HPLC) as appropriate.
Rate of drug release k values of each dissolution profile was determined by calculating the slope of graph % drug release versus square root time. All the linear relationship between % drug release and square root time has R^2 correlation value […].

[3] = from A03003 (CLP) cross-linked polymer pessaries
[4] = from A03030 (LP) linear polymer pessaries
[5] = from A03032 (LP) linear polymer pessaries

| SMILES | Drug solubility (in water), in words [1] | Rate of drug release, k [2, 3] [minute^−0.5] | Rate of drug release, k [2, 4] [minute^−0.5] | Rate of drug release, k [2, 5] [minute^−0.5] | Rate of drug release, k ([2]; from A03033 (LP) linear polymer pessaries) [minute^−0.5] |
| --- | --- | --- | --- | --- | --- |
| CCCCC(C)(O)C/C=C/[C@H]1[C@H](O)CC(=O)[C@@H]1CCCCCCC(=O)OC (mixture of isomers) [MIS, misoprostol] | Insoluble |  |  |  |  |
| CC[C@H](C)[C@@H]1NC(=O)[C@H](Cc2ccc(O)cc2)NC(=O)[C@@H](N)CSSC[C@@H](C(=O)N2CCC[C@H]2C(=O)N[C@@H](CC(C)C)C(=O)NCC(N)=O)NC(=O)[C@H](CC(N)=O)NC(=O)[C@H](CCC(N)=O)NC1=O [OXY, Oxytocin] |  | 6.749 | 7.875 | 7.85 |  |
| CC(=O)[C@H]1CC[C@H]2[C@@H]3CCC4=CC(=O)CC[C@]4(C)[C@H]3CC[C@]12C [PRO, Progesterone] | Insoluble | 2.414 |  |  | 1.256 |
| CC(C)(C)NCC(O)c1cc(O)cc(O)c1 (centres unmarked) [TBS, Terbutaline sulphate] | Soluble | 13.628 | 13.262 | 11.954 |  |
